According to ChEMBL document CHEMBL1201862, “PubChem BioAssay data set” (2004):
“And” between values parts separate entries of the source, which are not always exact repeats. Equal entries are not always repeated. The source made the active and inactive calls.

Assays:
[1] = biological target: DNA dC->dU-editing enzyme APOBEC-3A (Homo sapiens, UniProt P31941); assay: A3A deaminase inhibition for selectivity – biochemical, dose response (AID 504722); assay type: functional
[2] = biological target: DNA dC->dU-editing enzyme APOBEC-3G (Homo sapiens, UniProt Q9HC16); assay: Dose Response confirmation of small molecule APOBEC3G DNA Deaminase Inhibitors via a fluorescence-based single-stranded DNA deaminase assay. [Related pubchem assays (depositor defined):AID493012, AID493028]; assay type: functional
[3] = THP-1 cell cytotoxicity, dose response, cytotoxicity control for non-replicating M. tuberculosis project (AID 489025); assay type: functional
[4] = HepG2 cell cytotoxicity, dose response, cytotoxicity control for non-replicating M. tuberculosis project (AID 489018); assay type: functional; details: Mycobacterium tuberculosis
[5] = Vero E6 cell cytotoxicity, dose response, cytotoxicity control for non-replicating M. tuberculosis project, secondary assay (AID 492998); assay type: functional, VeroE6; details: Vero C1008
cells = assay type: functional
[6] = biological target: G-protein coupled receptor 55 (Homo sapiens, UniProt Q9Y2T6); assay: inhibition of LPI-stimulated GPR55 beta-arrestin translocation – imaging, U2OS, beta-arrestin-GFP, LPI agonist, primary screen (AID 2013); assay type: functional;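 also: antagonist potency measured as reduced agonist-driven arrestin aggregation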
Coagulation factor XII = biological target: T1, Coagulation factor XII (Homo sapiens, UniProt P00748); assay type: functional;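 also: activated factor XIIa alpha cleaving a fluorogenic AMC peptide substrate; inhibitor potency from loss of enzyme activity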
T1 sequence (P00748 whole entry): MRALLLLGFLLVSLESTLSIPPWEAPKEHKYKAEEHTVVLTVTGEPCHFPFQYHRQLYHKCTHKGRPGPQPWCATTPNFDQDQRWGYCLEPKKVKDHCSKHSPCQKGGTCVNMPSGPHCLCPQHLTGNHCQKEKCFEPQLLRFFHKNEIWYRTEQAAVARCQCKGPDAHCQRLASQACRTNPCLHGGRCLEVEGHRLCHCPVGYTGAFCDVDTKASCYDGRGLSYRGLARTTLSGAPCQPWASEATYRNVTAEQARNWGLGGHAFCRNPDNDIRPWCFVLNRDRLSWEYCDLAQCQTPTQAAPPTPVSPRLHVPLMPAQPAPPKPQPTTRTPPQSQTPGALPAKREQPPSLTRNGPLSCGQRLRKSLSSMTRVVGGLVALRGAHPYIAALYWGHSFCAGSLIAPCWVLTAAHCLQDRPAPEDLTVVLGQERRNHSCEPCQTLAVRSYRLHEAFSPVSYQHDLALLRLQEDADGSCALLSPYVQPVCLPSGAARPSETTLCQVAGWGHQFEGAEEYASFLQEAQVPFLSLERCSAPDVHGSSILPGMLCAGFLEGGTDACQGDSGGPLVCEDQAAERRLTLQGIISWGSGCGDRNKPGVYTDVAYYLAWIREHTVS

[7] = system: Streptococcus sp. 'group A'; assay: Streptococcus pyogenes SK(-)GAS viability under kanamycin – luminescence, BacTiterGlo, confirmation, counter-screen for streptokinase expression inhibitor project, dose response (AID 1900); assay type: functional, organism-based
Streptokinase A = biological target: T2, Streptokinase A (Streptococcus pyogenes serotype M1, UniProt P10520); assay: viability-normalized secreted streptokinase activity reduction – plasminogen activation absorbance, OD405, dose response (AID 1914); assay type: functional, Streptococcus pyogenes M1 GAS;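 also: secreted streptokinase activity via plasminogen activation per viability signal from cell pellet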
T2 sequence (P10520 whole entry): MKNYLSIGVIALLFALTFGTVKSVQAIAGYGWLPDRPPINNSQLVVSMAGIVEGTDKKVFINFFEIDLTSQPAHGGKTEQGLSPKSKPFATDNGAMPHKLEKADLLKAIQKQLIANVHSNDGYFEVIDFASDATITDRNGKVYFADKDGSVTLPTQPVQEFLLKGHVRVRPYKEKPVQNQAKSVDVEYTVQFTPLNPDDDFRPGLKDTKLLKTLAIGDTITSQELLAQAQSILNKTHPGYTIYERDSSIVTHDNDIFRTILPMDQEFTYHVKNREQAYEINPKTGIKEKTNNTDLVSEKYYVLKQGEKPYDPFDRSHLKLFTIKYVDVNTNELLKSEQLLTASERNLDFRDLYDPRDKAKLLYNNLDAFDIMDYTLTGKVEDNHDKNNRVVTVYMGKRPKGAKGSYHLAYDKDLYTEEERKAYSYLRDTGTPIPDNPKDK

Streptococcus = assay: GAS UMAA2166 growth inhibition – luminescence, BacTiterGlo, counter-screen for streptokinase expression inhibitor project, dose response (AID 1915); assay type: functional, organism-based;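 also: potency for reduction of bacterial viability or growth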
[8] = biological target: T3, Short transient receptor potential channel 4 (Mus musculus, UniProt Q9QUQ5); assay: block of DAMGO-driven TRPC4 calcium entry – cell-based, HEK293 TRPC4/mu-opioid, Fluo-4 calcium, dose response (AID 434942); assay type: functional;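 also: potency of inhibitors blocking the TRPC4 calcium response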
T3 sequence (Q9QUQ5 whole entry): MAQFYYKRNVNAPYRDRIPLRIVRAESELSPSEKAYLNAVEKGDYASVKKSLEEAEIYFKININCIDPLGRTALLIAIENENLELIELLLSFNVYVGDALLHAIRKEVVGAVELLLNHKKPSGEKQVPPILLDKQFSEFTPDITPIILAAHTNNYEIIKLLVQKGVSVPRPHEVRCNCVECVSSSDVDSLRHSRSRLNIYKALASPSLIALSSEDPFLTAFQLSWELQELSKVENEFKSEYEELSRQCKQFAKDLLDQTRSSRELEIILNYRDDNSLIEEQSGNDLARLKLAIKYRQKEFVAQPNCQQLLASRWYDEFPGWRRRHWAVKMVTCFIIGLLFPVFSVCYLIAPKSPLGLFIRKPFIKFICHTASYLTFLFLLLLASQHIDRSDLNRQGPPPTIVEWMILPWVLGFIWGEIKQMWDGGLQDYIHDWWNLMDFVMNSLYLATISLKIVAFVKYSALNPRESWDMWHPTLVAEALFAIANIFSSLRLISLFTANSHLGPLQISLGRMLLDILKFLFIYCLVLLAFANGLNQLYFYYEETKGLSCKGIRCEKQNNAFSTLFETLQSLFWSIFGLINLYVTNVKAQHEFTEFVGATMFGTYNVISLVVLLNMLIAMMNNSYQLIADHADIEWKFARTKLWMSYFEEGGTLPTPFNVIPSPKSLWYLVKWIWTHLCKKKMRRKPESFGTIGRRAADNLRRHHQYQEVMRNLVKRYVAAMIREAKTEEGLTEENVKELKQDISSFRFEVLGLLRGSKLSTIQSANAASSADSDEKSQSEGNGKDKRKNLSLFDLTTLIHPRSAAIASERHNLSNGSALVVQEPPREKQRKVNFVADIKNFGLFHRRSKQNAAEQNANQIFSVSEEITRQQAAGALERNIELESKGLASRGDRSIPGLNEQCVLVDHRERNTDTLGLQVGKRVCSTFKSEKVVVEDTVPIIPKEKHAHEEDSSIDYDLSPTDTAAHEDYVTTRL

[9] = biological target: T4, RNA-binding protein pos-1 (Caenorhabditis elegans, UniProt G5EF15); assay: disruptors of C. elegans POS-1 RNA interaction – biochemical, fluorescence polarization, dose response (AID 1964);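 also: purified POS-1 fused to maltose binding protein made in E. coli; potency of compounds blocking POS-1 binding to fluorescent RNA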
T4 sequence (G5EF15 whole entry): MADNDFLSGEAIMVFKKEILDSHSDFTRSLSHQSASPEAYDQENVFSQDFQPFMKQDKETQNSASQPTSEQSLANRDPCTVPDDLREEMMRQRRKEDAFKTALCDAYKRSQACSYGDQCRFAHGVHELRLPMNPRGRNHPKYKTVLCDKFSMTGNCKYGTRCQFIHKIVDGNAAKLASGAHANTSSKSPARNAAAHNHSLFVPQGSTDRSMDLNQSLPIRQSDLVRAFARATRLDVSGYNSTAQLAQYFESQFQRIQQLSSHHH

[10] = biological target: T5, Zinc finger protein mex-5 (Caenorhabditis elegans, UniProt Q9XUB2); assay: potency of MEX-5 RNA-binding blockers – biochemical, C. elegans, fluorescence polarization, dose response (AID 1960)
T5 sequence (Q9XUB2 whole entry): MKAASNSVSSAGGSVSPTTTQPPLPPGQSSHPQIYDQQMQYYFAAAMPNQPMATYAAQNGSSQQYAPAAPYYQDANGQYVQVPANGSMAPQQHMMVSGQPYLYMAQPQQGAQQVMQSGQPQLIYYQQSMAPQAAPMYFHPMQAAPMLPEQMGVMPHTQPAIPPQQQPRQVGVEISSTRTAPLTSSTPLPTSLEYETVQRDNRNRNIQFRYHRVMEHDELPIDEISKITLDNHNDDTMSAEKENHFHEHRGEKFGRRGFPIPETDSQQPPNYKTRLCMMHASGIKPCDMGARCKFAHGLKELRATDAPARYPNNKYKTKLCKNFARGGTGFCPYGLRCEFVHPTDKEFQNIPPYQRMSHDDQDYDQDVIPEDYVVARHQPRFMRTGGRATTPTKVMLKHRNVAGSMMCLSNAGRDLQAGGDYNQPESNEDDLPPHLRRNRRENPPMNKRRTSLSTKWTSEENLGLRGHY

[11] = biological target: T6, Mannose-6-phosphate isomerase (Homo sapiens, UniProt P34949); assay: MPI enzyme activity inhibition – biochemical, fluorescence intensity, coupled assay, primary screen (AID 1209)
T6 sequence (P34949 whole entry): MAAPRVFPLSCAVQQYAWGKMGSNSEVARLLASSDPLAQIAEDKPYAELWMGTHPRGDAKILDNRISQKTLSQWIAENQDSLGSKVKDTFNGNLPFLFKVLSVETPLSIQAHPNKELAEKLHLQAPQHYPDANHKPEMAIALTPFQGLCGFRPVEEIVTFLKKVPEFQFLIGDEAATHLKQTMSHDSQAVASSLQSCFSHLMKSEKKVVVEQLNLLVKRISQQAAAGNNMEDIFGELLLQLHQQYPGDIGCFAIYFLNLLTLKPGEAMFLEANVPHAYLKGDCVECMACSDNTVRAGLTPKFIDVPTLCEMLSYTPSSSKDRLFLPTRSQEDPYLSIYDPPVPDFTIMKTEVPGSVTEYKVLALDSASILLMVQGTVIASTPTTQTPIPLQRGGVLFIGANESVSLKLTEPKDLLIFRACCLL

[12] = biological target: Eukaryotic translation initiation factor 4E (Mus musculus, UniProt P63073); assay: blockers of eIF4G binding by eIF4E – biochemical, TR-FRET, dose response (AID 855); assay type: functional;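 also: potency for disrupting eIF4E binding to eIF4GI seen as loss of FRET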
Nonstructural protein 1 = Nonstructural protein 1 (Influenza A virus, UniProt Q194T2); assay type: functional, Influenza A virus (A/California/07/2009(H1N1))
[13] = biological target: Ras and Rab interactor 1/Tyrosine-protein kinase ABL1 (Homo sapiens, UniProt P00519+Q13671); assay type: functional;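 also: biochemical TR-FRET dose-response test measuring inhibition of binding between Rin1 and Abl proteins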
[14] = biological target: T7, Long-chain-fatty-acid--AMP ligase FadD28 (Mycobacterium tuberculosis, UniProt P9WQ59); assay: Fluorescence polarization aasay to screen for inhibitors that compete for the binding of FadD28 to a bisubstrate Measured in Biochemical System Using Plate Reader - 2147-01_Inhibitor_Dose_CherryPick_Activity.; assay type: functional, Mycobacterium tuberculosis H37Rv
T7 sequence (P9WQ59 whole entry): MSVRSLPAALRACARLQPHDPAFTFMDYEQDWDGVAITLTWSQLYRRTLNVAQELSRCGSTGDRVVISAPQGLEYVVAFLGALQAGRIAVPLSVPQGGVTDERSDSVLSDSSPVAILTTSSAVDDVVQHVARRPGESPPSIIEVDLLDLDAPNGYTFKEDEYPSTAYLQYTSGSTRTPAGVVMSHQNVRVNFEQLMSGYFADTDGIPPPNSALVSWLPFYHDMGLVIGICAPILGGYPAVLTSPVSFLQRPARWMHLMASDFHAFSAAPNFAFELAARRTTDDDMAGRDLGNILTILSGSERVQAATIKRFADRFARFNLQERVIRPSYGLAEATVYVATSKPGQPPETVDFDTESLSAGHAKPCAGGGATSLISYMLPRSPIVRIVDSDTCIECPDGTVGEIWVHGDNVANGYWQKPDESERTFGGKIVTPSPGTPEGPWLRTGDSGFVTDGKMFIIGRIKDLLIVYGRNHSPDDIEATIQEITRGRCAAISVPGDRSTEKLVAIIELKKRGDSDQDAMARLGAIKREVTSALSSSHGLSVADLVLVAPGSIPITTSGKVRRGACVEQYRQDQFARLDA

Protein Tat = biological target: T8, Protein Tat (Human immunodeficiency virus type 1 group M subtype B (isolate HXB2)(HIV-1), UniProt P04608); assay type: functional;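 also: tat binding to TAR RNA read out by fluorescence polarization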
T8 sequence (P04608 whole entry): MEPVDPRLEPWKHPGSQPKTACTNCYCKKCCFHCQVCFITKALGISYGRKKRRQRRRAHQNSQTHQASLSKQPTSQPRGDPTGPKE

Chain of DNA dC->dU-editing enzyme APOBEC-3G (Q9HC16 whole entry): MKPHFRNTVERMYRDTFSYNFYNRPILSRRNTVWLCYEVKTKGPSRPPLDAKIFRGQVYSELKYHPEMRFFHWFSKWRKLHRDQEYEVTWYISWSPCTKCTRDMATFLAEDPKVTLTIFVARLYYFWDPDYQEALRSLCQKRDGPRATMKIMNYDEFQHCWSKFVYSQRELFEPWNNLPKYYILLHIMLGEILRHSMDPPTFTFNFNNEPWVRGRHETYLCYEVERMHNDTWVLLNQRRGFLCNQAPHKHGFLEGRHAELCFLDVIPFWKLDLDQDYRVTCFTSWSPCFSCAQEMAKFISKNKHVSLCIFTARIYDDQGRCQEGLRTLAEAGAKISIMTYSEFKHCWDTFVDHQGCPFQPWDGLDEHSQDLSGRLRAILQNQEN
Chain of DNA dC->dU-editing enzyme APOBEC-3A (P31941 whole entry): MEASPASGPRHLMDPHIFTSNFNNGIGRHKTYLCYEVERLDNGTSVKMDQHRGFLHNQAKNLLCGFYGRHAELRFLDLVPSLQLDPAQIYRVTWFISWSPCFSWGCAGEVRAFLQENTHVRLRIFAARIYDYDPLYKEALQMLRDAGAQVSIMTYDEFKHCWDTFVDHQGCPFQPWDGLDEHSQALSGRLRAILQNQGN
Chain of G-protein coupled receptor 55 (Q9Y2T6 whole entry): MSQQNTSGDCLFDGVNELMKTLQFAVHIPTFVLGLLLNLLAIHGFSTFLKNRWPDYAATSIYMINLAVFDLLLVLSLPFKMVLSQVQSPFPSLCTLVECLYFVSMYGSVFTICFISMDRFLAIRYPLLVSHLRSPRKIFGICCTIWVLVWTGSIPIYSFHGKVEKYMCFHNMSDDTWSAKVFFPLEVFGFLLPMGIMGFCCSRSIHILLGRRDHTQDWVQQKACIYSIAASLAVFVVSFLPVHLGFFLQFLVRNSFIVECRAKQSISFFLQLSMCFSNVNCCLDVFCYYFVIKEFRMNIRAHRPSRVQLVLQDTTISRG
Chain of Ras and Rab interactor 1/Tyrosine-protein kinase ABL1 (P00519 whole entry): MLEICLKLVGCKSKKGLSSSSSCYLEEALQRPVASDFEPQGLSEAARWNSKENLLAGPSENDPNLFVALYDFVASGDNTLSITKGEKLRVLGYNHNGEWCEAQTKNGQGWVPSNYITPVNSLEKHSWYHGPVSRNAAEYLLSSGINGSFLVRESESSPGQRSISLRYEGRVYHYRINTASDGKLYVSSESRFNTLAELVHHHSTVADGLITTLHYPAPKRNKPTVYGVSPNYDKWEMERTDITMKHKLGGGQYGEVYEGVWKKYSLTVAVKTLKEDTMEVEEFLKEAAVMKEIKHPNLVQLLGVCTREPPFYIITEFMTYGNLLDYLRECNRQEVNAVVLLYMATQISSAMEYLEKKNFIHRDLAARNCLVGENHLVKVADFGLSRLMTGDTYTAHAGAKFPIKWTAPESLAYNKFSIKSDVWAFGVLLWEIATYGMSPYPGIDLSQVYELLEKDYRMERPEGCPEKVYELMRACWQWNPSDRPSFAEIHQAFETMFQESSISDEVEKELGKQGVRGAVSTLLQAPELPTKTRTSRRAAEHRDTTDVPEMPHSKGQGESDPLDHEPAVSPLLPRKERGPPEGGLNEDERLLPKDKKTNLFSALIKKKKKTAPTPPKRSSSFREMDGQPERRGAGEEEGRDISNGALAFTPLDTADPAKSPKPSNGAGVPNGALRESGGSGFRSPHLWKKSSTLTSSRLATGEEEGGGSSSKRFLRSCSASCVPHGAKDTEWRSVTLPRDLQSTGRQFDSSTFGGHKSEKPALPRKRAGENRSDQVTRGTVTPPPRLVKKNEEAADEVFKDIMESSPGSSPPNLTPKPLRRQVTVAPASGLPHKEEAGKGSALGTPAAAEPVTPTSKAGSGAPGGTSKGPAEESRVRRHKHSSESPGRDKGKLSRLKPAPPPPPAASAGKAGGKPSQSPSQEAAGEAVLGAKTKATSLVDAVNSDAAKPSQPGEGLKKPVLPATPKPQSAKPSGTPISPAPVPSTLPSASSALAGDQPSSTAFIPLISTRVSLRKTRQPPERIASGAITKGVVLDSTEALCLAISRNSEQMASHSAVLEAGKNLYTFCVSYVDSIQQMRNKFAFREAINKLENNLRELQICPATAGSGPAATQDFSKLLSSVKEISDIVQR
Chain of Ras and Rab interactor 1/Tyrosine-protein kinase ABL1 (Q13671 whole entry): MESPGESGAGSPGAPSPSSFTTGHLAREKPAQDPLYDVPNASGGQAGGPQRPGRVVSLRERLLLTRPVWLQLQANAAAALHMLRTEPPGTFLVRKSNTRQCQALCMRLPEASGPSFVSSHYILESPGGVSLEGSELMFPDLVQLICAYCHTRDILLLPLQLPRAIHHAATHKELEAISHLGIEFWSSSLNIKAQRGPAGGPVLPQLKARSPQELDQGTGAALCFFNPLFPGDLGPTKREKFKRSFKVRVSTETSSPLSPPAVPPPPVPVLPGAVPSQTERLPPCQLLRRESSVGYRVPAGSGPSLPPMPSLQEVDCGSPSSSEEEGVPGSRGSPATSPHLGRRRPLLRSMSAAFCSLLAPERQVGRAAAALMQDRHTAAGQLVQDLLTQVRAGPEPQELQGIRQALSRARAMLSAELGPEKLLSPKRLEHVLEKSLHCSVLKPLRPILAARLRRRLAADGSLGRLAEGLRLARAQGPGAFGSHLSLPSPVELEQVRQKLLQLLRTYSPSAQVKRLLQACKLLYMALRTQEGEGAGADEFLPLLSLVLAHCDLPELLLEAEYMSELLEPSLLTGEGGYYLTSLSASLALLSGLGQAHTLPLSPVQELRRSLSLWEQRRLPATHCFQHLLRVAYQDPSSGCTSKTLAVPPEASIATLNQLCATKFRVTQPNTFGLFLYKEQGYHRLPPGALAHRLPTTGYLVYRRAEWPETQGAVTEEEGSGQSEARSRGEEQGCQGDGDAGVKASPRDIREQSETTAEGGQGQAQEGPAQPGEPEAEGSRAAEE
Chain of Eukaryotic translation initiation factor 4E (P63073 whole entry): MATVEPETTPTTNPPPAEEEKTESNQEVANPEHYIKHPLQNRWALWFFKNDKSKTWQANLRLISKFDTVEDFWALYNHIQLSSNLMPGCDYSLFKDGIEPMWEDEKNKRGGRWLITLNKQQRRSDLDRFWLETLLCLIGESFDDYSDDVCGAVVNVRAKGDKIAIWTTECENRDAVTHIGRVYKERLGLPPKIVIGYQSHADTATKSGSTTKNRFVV
Chain of Nonstructural protein 1 (Q194T2 whole entry): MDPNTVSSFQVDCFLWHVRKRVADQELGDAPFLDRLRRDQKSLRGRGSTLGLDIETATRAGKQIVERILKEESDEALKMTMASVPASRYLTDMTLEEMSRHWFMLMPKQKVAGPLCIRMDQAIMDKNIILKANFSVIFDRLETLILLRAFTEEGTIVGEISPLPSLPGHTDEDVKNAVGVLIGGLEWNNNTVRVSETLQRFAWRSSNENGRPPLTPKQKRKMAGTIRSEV

Cc1cc(-c2nnc(S)n2/N=C/c2ccc(C)o2)n[nH]1
IC50 [1]: > 100 µM (inactive) | IC50 [2]: 5.66 µM (active)

Cc1ccc(-n2c(C)cc(C3=NN=C(NC4CC4)SC3)c2C)cc1C
CC50 [3]: 20 µM (active) | CC50 [4]: > 20 µM (active) | CC50 [5]: > 20 µM (active) | IC50 (cells): 39 µM (active)

CC(C)CC(=O)NC(Oc1ccc(Cl)cc1)C(Cl)(Cl)Cl (centres undefined)
IC50 [6]: 1.17 µM (active)

CC(=O)NC(CC(=O)OCC(=O)c1c(N)n(C)c(=O)n(C)c1=O)c1ccccc1 (centres undefined)
IC50 (Coagulation factor XII): > 50 µM (inactive)

O=C(Nc1nnc(-c2ccncc2)o1)c1ccc(Br)s1
EC50 [7]: 3.57 µM (active) | EC50 (Streptokinase A): > 150 µM (not active) | EC50 (Streptococcus): 11.8 µM (active) | CC50 [3]: 23.7 µM (active) | CC50 [4]: 19.3 µM (active) | CC50 [5]: 16.8 µM (active) | IC50 (cells): 18.3 µM (active)

CCOC(=O)c1c(N)sc(C(O)(C(F)(F)F)C(F)(F)F)c1-c1ccccc1
IC50 [6]: 3.66 µM (active) | EC50 [8]: 7.5 µM (active)

N#Cc1cnn(Cc2ccc(Cl)cc2)c1N
IC50 (Coagulation factor XII): > 50 µM (inactive)

Cc1c2cc(O)c(=O)cc-2oc2cc(O)c(O)cc12
EC50 [9]: 1.9 µM (inconclusive) | EC50 [10]: 0.082 µM (active) | IC50 [11]: 3.55 µM (active) | IC50 [12]: 43.3 µM (inactive) | IC50 (Nonstructural protein 1): 30.5 µM (active) | IC50 [13]: 0.835 µM (active) | AC50 [14]: 4.65 µM (active) | IC50 (Protein Tat): 31.3 µM (inconclusive) and > 52.2 µM (active)

Cc1nc(SCc2ccccc2)c2ccsc2n1
IC50 (Coagulation factor XII): > 50 µM (inactive)

CCn1c(S)nnc1CSCc1ccccc1
IC50 [1]: > 100 µM (inactive) | IC50 [2]: 8.31 µM (active)
